From PubChem BioAssay (NCI)
Values joined by “and” are separate entries in the source; they are usually repeats but may differ in a detail not shown here. Equal values may be shown once.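 Grown in 96-well plates, cells were treated for 48 hours with each compound at five concentrations. Insufficient inhibition: endpoint recorded as highest concentration tested. The concentration for 50% growth inhibition is given as GI50. The concentration for full growth arrest is given as TGI.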

Tests used:
Assay in all cases: NCI anticancer screen, dose series, 48 h
[1] = test system: CCRF-CEM leukemia
[2] = test system: MCF7 breast
[3] = test system: NCI-H226 lung
[4] = test system: SNB-75 CNS
[5] = test system: NCI/ADR-RES ovarian
[6] = test system: SK-MEL-2 melanoma
[7] = test system: 786-0 renal
[8] = test system: SK-MEL-5 melanoma
[9] = test system: OVCAR-5 ovarian
[10] = test system: MDA-MB-435
[11] = test system: SK-OV-3 ovarian

| Structure (SMILES) | TGI [1] [µM] | TGI [2] | TGI [3] [µM] | TGI [4] | TGI [5] [µM] | TGI [6] | TGI [7] | TGI [8] | TGI [9] [µM] | TGI [10] | TGI [11] | GI50 [1] | GI50 [9] | GI50 [10] |
| --- | --- | --- | --- | --- | --- | --- | --- | --- | --- | --- | --- | --- | --- | --- |
| CCOC1=NC(C(F)(F)F)(C(F)(F)F)N=C(/N=C(/N)N(C)C(C(C)C)P(=O)(OC(C)C)OC(C)C)O1 (configuration not stated) | 83.5 | > 100 µM | > 100 | > 100 µM | > 100 | > 100 µM | > 100 µM | > 100 µM | > 100 | > 100 µM | > 100 µM | – | – | – |
| [B]C(=O)NC(CC(C)C)C(=O)NC1c2ccsc2C(=O)C1O (configuration not stated) (tested in a mixture with another compound) | > 100 | > 100 µM | > 100 | > 100 µM | > 100 | > 100 µM | > 100 µM | > 100 µM | > 100 | > 100 µM | > 100 µM | – | – | – |
| O=C1C=C(NCCc2ccc(O)cc2)C(=O)C=C1NCCc1ccc(O)cc1 | > 100 | > 100 µM | > 100 | 47.5 µM | > 100 | > 100 µM | > 100 µM | > 100 µM | > 100 | > 100 µM | > 100 µM | – | – | – |
| CN1CCN2CCN(C)CCN(CC1)CC2 | > 100 | > 100 µM | > 100 | > 100 µM | > 100 | > 100 µM | > 100 µM | > 100 µM | > 100 | > 100 µM | > 100 µM | – | – | – |
| ClC1(Cl)C2CCOC21n1cnc2ccccc21 (configuration not stated) | > 100 | > 100 µM | > 100 | > 100 µM | > 100 | > 100 µM | > 100 µM | > 100 µM | > 100 | > 100 µM | > 100 µM | – | – | – |
| CNC(=S)c1nnsc1N | > 100 | > 100 µM | > 100 | > 100 µM | > 100 | > 100 µM | > 100 µM | > 100 µM | > 100 | > 100 µM | > 100 µM | – | – | – |
| COc1ccc(-c2c(C#N)c(N)n(C3OC(COC(C)=O)C(OC(C)=O)C(OC(C)=O)C3OC(C)=O)c(=S)c2C#N)cc1 (configuration not stated) | > 100 | > 100 µM and 60.9 µM | > 100 | 63.4 µM and 50.9 µM | > 100 | > 100 µM and 39.8 µM | > 100 µM and 75.5 µM | > 100 µM and 56.4 µM | > 100 | > 100 µM and 26.2 µM | 78.1 µM and 85 µM | > 100 µM and 46.5 µM | > 100 µM and 38.4 µM | 44.1 µM and 13.4 µM |
| CC(C)N=C(NC#N)NS(=O)(=O)c1cnccc1NC1CCCCCCC1 | > 100 | > 100 µM | > 100 | > 100 µM | > 100 | > 100 µM | > 100 µM | > 100 µM | > 100 | > 100 µM | > 100 µM | – | – | – |
| O=[N+]([O-])c1cc(C2ON=C(c3ccccc3)N2C23CC4CC(CC(C4)C2)C3)ccc1Cl (configuration not stated) | > 100 | > 100 µM | > 100 | 93.6 µM | > 100 | > 100 µM | > 100 µM | > 100 µM | > 100 | > 100 µM | > 100 µM | – | – | – |
| N#C[C@H](c1nc2ccccc2[nH]1)c1nc2ccccc2nc1Cl | 10.9 | > 100 µM | 64.7 | 41.1 µM | > 100 | > 59.1 µM | > 100 µM | 36 µM | > 66.2 | > 78 µM | > 100 µM | – | – | – |
| O=C(CCCN1CCC(Nc2ccc(F)cc2)(c2nnnn2C2CCCCC2)CC1)c1ccc(F)cc1 | > 100 | 33.1 µM | 36 | 24.7 µM | 46.9 | 40.7 µM | 37.1 µM | 42 µM | 29.7 | 31.5 µM | 11.5 µM | – | – | – |
| CC1(C)C/C=C\CCC(O)C(O)CCC(C)(C)C1=O (configuration not stated) | > 100 | > 100 µM | > 100 | > 100 µM | > 100 | > 100 µM | > 100 µM | > 100 µM | > 100 | > 100 µM | > 100 µM | – | – | – |
| COc1cc(CNC(=O)CCCCCCCCCCSC#N)ccc1O | 62.9 | 34.9 µM | 37.8 | 29.3 µM | 59.7 | 28.8 µM | 41.5 µM | 19.4 µM | 85.8 | 24.4 µM | 25.8 µM | – | – | – |
| Cc1nc2ccccc2n1Cc1ccc(NC(=S)NC2CCCCC2)cc1 | > 100 | 72.3 µM | > 100 | > 84.7 µM | > 100 | > 100 µM | > 100 µM | > 51.4 µM | > 100 | > 100 µM | > 100 µM | – | – | – |
| C[C@@H](Br)[C@@H]1CC[C@H]2c3[nH]c4ccccc4c3CCN2C1 | 54.8 | 77.6 µM | > 100 | 48.3 µM | 47.3 | 50.6 µM | 36.6 µM | 29.4 µM | > 100 | 45.6 µM | 87.2 µM | – | – | – |
| O=C1OCC(CN2CCC(n3c(=O)[nH]c4ccccc43)CC2)=C1c1ccccc1 | 60.5 | 96.4 µM | 76.7 | 72.4 µM | 59.6 | 38.1 µM | 82.5 µM | 28.9 µM | > 100 | 62.4 µM | 94.2 µM | – | – | – |
| C=CCOC1=C(OC(C)=O)C(C2COC(C)(C)O2)OC1=O (configuration not stated) | 41.7 | 32.8 µM | > 100 | > 100 µM | > 100 | > 100 µM | 37.4 µM | 33.6 µM | 32.4 | 46.2 µM | > 100 µM | – | – | – |
| O=C(CN1CCOCC1)c1ccc2c(c1)oc(=O)n2CCN1CCCCC1 | > 100 | > 100 µM | > 100 | 56.2 µM | > 100 | > 100 µM | > 100 µM | > 100 µM | > 100 | > 100 µM | > 100 µM | – | – | – |
| O=C1CCCC1C(O)(C(F)(F)Cl)C(F)(F)Cl (configuration not stated) | > 10 | > 10 µM | > 10 | > 10 µM | > 10 | > 10 µM | > 10 µM | > 10 µM | > 10 | > 10 µM | > 10 µM | – | – | – |
